According to ChEMBL document CHEMBL1153185, “Two novel neo-clerodane diterpenoids from Scutellaria barbata” (Bioorg Med Chem Lett, 2010):
Structures can show the parent of a compound that is named as a salt. Calls of active or inactive are those of the source. The calls are words filed in the database; no cut-off is given here.

Columns and labels:
Assay type in all cases: functional, cell-based
HL-60 = experiment: Cytotoxicity against human HL60 cells by MTT assay
MCF7 = experiment: Cytotoxicity against human MCF7 cells by MTT assay
Lewis lung carcinoma = experiment: Cytotoxicity against mouse LLC by MTT assay

Row | Structure (SMILES) | IC50 (HL-60) | Activity (MCF7) | Activity (Lewis lung carcinoma) | Activity (HL-60)
1 | COc1cccc2c1C(=O)c1c(O)c3c(c(O)c1C2=O)C[C@@](O)(C(=O)CO)C[C@@H]3O[C@H]1C[C@H](N)[C@H](O)[C@H](C)O1 [DOXORUBICIN HYDROCHLORIDE] | 0.18 µM | – | – | –
2 | C[C@@]12[C@@H](OC(=O)c3cccnc3)[C@H](OC(=O)c3ccccc3)[C@](C)(O)[C@](C)(/C=C/C3=CC(=O)OC3)[C@H]1CC=C[C@]2(C)O | – | inactive | inactive | inactive
3 | CC(=O)O[C@@H](CC1=CC(=O)OC1)[C@]1(C)[C@H]2CCC=C(C)[C@]2(C)[C@@H](OC(=O)c2cccnc2)[C@H](OC(=O)c2ccccc2)[C@]1(C)O [BARBATELLARINES B] | 41.4 µM | – | – | –
